According to patent US20210355115A1, “ISOXAZOLE CARBOXAMIDE COMPOUNDS AND USES THEREOF” (Novartis AG, priority 2018, published 2021):

Tests used:
[1] = tested on: Atoh1; assay: Atoh1 induction assay in mouse cerebellar neural precursor cells (Atoh1-GFP reporter assay); type: cell-based; settings: maximum fold difference over DMSO control (=1), cerebellar NPCs from Atoh1-GFP mice, 10 doses 50 μM to 200 nM, 72 hours treatment, read-out: Fold Difference (ratio of Atoh1-GFP average intensity_FC to DMSO_Max)
Procedure: Atoh1 induction assay was conducted with in vitro cultured cerebellar neural precursor cells isolated from neonatal transgenic Atoh1-GFP mice. Atoh1 expression is mainly regulated by the enhancer, and the nuclear GFP was driven by the cloned enhancer sequence at 3′ of Atoh1 which had high conservation among mammalians So Atoh1 induction could be reflected by GFP activation in cerebellar neural precursor cells (Helms et al., Development 2000; 127: 1185-1196; Lumpkin et al., Gene Expression Patterns 2003; 3: 389-395). Postnatal 3 days pups were dissected for cerebellum tissue isolation. The cerebellum tissue was cut into small pieces, and dissociated with 0.05% Trypsin for about 10 minutes at 37° C., and then filtered with a 70 uM cell strainer. The cells were cultured as neuropsheres for the first 2 days in ultra-low attachment dish/well-plate with DMEM/F12+1% N2 &2% B27 with 1% P/S, 20 ng/ml rhFGF2 and 20 ng/ml rhEGF (R&D Systems). Then the spheres were plated to the matrigel (1:30 diluted in DMEM/F12)-coated tissue culture dish for monolayer culture. After 4.5-5.5 days culture in vitro (DIV), cells were dissociated with 0.05% trypsin into single cells, and frozen after cell number calculation.
The cerebellar neural precursor cells (NPCs) were re-thawed from stock and cultured for another 2 days before used for Atoh1 induction assay. On the first day of assay, NPCs were seeded into matrigel-coated 384 well plates (Black view-plate, PE) at 2500 cells/well. After over-night culture, the NPCs were treated with representative compounds of the present disclosure with 1:2 serial dilutions for 10 doses, from 50 μM to 200 nM, with DMSO as negative control. After 72 hours treatment without medium change, the cells were fixed with 4% formalin for staining Assay plates were stained with GFP antibody (Abcam, #13970, 1:1000) to amplify endogenous GFP signal and then read by Cellomics. […] Table 1 Atoh1 activation by treatment of Compounds of the present disclosure (Atoh1-GFP reporter assay in cerebellar NPCs)

[2] = tested on: mouse cochlea explants with hair cell damage; assay: Ex vivo hair cell induction assay using 6-day-postnatal mouse cochlea explants with hair cell damage; type: cell-based; settings: 10 μM; neomycin-damaged P6 Atoh1-GFP mouse cochlea explants; 8 days treatment; Mean ± SD; DMSO control 0
Procedure: Ex Vivo Hair Cell Induction Assay Using 6-Day-Postnatal Mouse Cochlea Explants with Hair Cell Damage
P6, postnatal 6 days, Atoh1-GFP mice, the same mouse strain used for Atoh1 induction assay described before, were used in this assay. The otic capsule was exposed and the cochleae were micro-dissected. The basilar membrane was separated from the organ of Corti and in vitro cultured in serum free medium (culture medium: DMEM/F12+1% N2+2% B27+5 μg/ml ampicillin) at 37° C. under a standard gas atmosphere of humidified air/5% CO2. Inner ear hair cells were damaged by 1 mM Neomycin treatment for […] After the neomycin treatment, explants were cultured in blank culture medium for 7 days before the treatment of selected compounds.
For compound administration, the cochlea explants were treated with 3 to 10 μM compound of the present disclosure, with DMSO as the negative control for 8 days with once compound/medium change. After 8 days treatment, the tested compound was removed. The explants were cultured in blank medium for additional 4 days. The cochlea explant cultures then were fixed with 4% w/v formalin and processed for Myo7a immunofluorescence (Myo7a is a specific marker for sensory hair cell) using the rabbit anti-Myo7a antibody (Protus Biosci #25-6790, 1:250 diluted in PBS containing 3% BSA). Rhodamine labeled Goat-anti-rabbit IgG (Molecular Prob. #R6394, 1:1000 diluted in PBS containing 3% BSA) was used as the secondary antibody to visualize the Myo7a positive cells. The images were collected and analyzed using the EVOS image system (Thermo-Fisher Scientific). […] The hair cell identity of the ectopically formed cells was confirmed by staining the cells with multiple hair cell markers.
The efficacy of hair cells induction in this assay is represented by the responsive length percentage of Atoh1 and Myo7a double positive cells in the damaged whole explants after compound treatment. The responsive length percentage was calculated according to the equation of ((the explant length with Atoh1 and Myo7a double positive cells/the full length of cochlea explant)*100%). Note the value of DMSO control is 0% due to total damage of hair cells, and any responsive length percentage more than 20% is considered as significant hair cell induction.

Row | Structure (SMILES) | maximal fold induction [1] | Atoh1-GFP/Myo7a cell numbers in 25%-50% length from Apex [2] | Response ratio (Response length/full length %) [2] [%]
1 | NC(=O)C1CN(CCCCCNC(=O)c2cc(-c3cccs3)on2)CC1O (single isomer, unassigned) [33 peak 1] | 34.8 | 19.4 ± 2.7 | 62.1 ± 11.8
2 | NC(=O)[C@@H]1CN(CCCCCNC(=O)c2cc(-c3cccs3)on2)CC[C@H]1O [35 trans] | 24.8 | 14.2 ± 1.8 | 63.9 ± 5.8
3 | NC(=O)CN1CCN(CCCCCNC(=O)c2cc(-c3cccs3)on2)CC1 [Example 18, N-(5-(4-(2-amino-2-oxoethyl)piperazin-1-yl)pentyl)-5-(thiophen-2-yl)isoxazole-3-carboxamide] | 20.4 | 16.1 ± 3.0 | 59.4 ± 5.3
4 | NC(=O)[C@H](O)CN1CCN(CCCCCNC(=O)c2cc(-c3cccs3)on2)CC1 [Example 37 R, (R)—N-(5-(4-(3-amino-2-hydroxy-3-oxopropyl)piperazin-1-yl)pentyl)-5-(thiophen-2-yl)isoxazole-3-carboxamide] | – | 13.6 ± 4.0 | 42.2 ± 7.7
5 | NC(=O)[C@@H](O)CN1CCN(CCCCCNC(=O)c2cc(-c3cccs3)on2)CC1 [Example 37 S, (S)—N-(5-(4-(3-amino-2-hydroxy-3-oxopropyl)piperazin-1-yl)pentyl)-5-(thiophen-2-yl)isoxazole-3-carboxamide] | – | 11.1 ± 3.0 | 50.1 ± 16.8
6 | NC(=O)C(O)CN1CCN(CCCCCNC(=O)c2cc(-c3cccs3)on2)CC1 (stereo not shown) [Example 37, N-(5-(4-(3-amino-2-hydroxy-3-oxopropyl)piperazin-1-yl)pentyl)-5-(thiophen-2-yl)isoxazole-3-carboxamide] | 27.6 | 16.3 ± 4.0 | 56.9 ± 8.8
